Common to all, as to assay: Screen Quest Fluo-8 No Wash Calcium Assay (Bz-ATP evoked Ca2+ influx, FLIPR)
Common to all, as to format: cell-based

Test [1] addresses T1, P2X7 receptor (Rattus norvegicus, UniProt Q64663).
T1 construct: rP2X7 (IC50; nM); other: rP2X7; HEK-293 cells stably transfected with P2X7 receptor, Bz-ATP at EC80, Fluo-8 NW; potency
T1 sequence (Q64663 1-595): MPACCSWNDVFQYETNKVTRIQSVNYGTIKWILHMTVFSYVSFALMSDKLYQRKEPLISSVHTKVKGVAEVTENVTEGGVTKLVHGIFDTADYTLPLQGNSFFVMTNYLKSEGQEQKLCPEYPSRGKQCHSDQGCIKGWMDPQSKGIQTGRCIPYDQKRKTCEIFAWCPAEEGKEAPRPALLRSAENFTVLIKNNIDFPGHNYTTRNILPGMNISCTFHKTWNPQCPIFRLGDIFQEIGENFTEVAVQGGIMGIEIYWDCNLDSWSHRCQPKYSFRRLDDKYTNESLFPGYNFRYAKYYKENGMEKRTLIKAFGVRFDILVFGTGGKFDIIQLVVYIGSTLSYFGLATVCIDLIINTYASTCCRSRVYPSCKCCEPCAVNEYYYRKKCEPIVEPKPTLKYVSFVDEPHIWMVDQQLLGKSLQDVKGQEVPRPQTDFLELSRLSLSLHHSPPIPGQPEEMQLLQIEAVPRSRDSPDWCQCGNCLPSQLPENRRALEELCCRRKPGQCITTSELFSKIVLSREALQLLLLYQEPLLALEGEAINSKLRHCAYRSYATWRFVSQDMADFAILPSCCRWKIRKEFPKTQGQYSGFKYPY
As to conditions: rP2X7; HEK-293 cells stably transfected with P2X7 receptor, Bz-ATP at EC80, Fluo-8 NW; potency ranges A-D. The method in brief: (§1)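 HEK-293 cells stably expressing P2X7 were loaded with Fluo-8 NW for 1 h at RT, then given compound, and 5 min later Bz-ATP at EC80. Fluorescence was read by FLIPR in low divalent cation buffer (0.3 mM Ca2+, 0 mM Mg2+). IC50 came from percent inhibition relative to reference antagonist A438079.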

Test [2] concerns the target T2, P2X7 receptor (Mus musculus, UniProt Q9Z1M0).
T2 construct: mP2X7 (IC50; nM); other: mP2X7; HEK-293 cells stably transfected with P2X7 receptor, Bz-ATP at EC80, Fluo-8 NW; potency
T2 sequence (Q9Z1M0 1-595): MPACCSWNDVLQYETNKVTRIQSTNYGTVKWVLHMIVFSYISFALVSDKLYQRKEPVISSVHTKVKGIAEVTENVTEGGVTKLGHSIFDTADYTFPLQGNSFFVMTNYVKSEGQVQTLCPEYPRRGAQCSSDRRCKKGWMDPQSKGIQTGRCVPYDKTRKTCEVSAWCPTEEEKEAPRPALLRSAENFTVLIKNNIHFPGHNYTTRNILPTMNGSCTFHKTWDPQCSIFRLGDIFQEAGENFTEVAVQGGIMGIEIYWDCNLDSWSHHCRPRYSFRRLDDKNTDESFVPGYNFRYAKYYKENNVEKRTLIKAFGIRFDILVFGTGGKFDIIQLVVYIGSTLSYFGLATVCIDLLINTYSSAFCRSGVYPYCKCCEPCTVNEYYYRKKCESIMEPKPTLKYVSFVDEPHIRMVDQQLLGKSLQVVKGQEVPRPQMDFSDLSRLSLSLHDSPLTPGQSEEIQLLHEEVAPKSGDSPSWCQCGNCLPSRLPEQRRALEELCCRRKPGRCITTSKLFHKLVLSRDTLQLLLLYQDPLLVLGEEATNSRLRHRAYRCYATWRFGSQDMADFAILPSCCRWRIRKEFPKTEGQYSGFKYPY
As to conditions: mP2X7; HEK-293 cells stably transfected with P2X7 receptor, Bz-ATP at EC80, Fluo-8 NW; potency ranges A-D. The method in brief:
as §1

The target in test [3] is T3, P2X7 receptor (Homo sapiens, UniProt Q99572).
T3 sequence (Q99572 1-595): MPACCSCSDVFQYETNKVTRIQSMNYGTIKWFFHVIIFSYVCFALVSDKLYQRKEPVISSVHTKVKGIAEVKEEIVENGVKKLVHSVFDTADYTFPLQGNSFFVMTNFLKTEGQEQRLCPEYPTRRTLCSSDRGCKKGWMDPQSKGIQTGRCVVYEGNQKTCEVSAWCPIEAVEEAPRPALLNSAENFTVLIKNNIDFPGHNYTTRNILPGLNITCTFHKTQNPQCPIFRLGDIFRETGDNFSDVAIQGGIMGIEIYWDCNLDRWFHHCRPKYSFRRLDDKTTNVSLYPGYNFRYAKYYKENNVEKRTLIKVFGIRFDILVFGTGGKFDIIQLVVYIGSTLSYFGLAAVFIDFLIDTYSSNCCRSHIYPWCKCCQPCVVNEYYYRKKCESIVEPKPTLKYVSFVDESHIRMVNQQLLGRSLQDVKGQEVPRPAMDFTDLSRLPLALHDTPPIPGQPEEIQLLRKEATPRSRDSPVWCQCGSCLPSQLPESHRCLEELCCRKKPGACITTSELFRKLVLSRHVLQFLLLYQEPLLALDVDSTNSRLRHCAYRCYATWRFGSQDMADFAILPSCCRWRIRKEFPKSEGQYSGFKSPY
Also noted: hP2X7 (IC50; nM); other: hP2X7; HEK-293 cells stably transfected with P2X7 receptor, Bz-ATP at EC80, Fluo-8 NW; potency. The following applies: hP2X7; HEK-293 cells stably transfected with P2X7 receptor, Bz-ATP at EC80, Fluo-8 NW; potency ranges A-D. The method in brief:
as §1

`O=c1onc(Cc2ccc(Cl)cc2Cl)n1Cc1c(F)cccc1Cl` [Example 17, 4-[(2-chloro-6-fluorophenyl)methyl]-3-[(2,4-dichlorophenyl)methyl]-4,5-dihydro-1,2,4-oxadiazol-5-one]: the IC50 in test [1], in test [2] and in test [3] was 1000 to 10000 nM each time.

Consider `O=c1onc(Cc2c(F)cccc2Cl)n1Cc1cncs1` [Example 33, 3-[(2-chloro-6-fluorophenyl)methyl]-4-(1,3-thiazol-5-ylmethyl)-4,5-dihydro-1,2,4-oxadiazol-5-one], for which the half-inhibitory concentration (IC50) in test [1], in test [2] and in test [3] was greater than 10000 nM in each case.

Consider `O=c1onc(Cc2c(F)cccc2Cl)n1Cc1ccccc1F` [Example 56, 3-[(2-chloro-6-fluorophenyl)methyl]-4-[(2-fluorophenyl)methyl]-4,5-dihydro-1,2,4-oxadiazol-5-one], for which the IC50 in test [1], in test [2] and in test [3] was 1000 to 10000 nM each time.

`O=c1onc(Cc2c(F)cccc2Cl)n1Cc1cccc2ccccc12` [Example 29, 3-[(2-chloro-6-fluorophenyl)methyl]-4-(naphthalen-1-ylmethyl)-4,5-dihydro-1,2,4-oxadiazol-5-one]: the IC50 in test [1] is greater than 10000 nM; in test [2], 1000 to 10000 nM; in test [3], 1000 to 10000 nM.

Consider `CCC#CCn1c(Cc2c(F)cccc2Cl)noc1=O` [Example 90, 3-[(2-chloro-6-fluorophenyl)methyl]-4-(pent-2-yn-1-yl)-4,5-dihydro-1,2,4-oxadiazol-5-one], for which the IC50 in test [1] is 1000 to 10000 nM; in test [2] it was greater than 10000 nM; in test [3] it was 1000 to 10000 nM.

`O=c1onc(Cc2c(F)cccc2Cl)n1CC1CCC1` [Example 69, 3-[(2-chloro-6-fluorophenyl)methyl]-4-(cyclobutylmethyl)-4,5-dihydro-1,2,4-oxadiazol-5-one]: the IC50 in test [1] lay in the range of 200 to 1000 nM; in test [2], 1000 to 10000 nM; in test [3], 1000 to 10000 nM.

Turning to `O=c1onc(Cc2ccc(F)cc2Cl)n1CC1CCC(F)(F)CC1` [Example 162, 3-[(2-chloro-4-fluorophenyl)methyl]-4-[(4,4-difluorocyclohexyl)methyl]-4,5-dihydro-1,2,4-oxadiazol-5-one], the IC50 in test [1], in test [2] and in test [3] was greater than 10000 nM in each case.

Turning to `Cc1cc(F)ccc1Cn1c(CC2CCC(F)(F)CC2)noc1=O` [Example 171, 3-[(4,4-difluorocyclohexyl)methyl]-4-[(4-fluoro-2-methylphenyl)methyl]-4,5-dihydro-1,2,4-oxadiazol-5-one], the IC50 in test [1] fell in the range of 200 to 1000 nM; in test [2] it was 1000 to 10000 nM; in test [3], 1000 to 10000 nM.

As to `O=c1onc(CC2CCC(F)(F)CC2)n1Cc1cncs1` [Example 193, 3-[(4,4-difluorocyclohexyl)methyl]-4-[(1,3-thiazol-5-yl)methyl]-1,2,4-oxadiazol-5(4H)-one], the IC50 in test [1] lay in the range of 200 to 1000 nM; in test [2] it was 1000 to 10000 nM; in test [3], 1000 to 10000 nM.

On to `O=c1onc(Cc2ccccc2C(F)(F)F)n1CC1CCC(F)(F)CC1` [Example 157, 4-[(4,4-difluorocyclohexyl)methyl]-3-{[2-(trifluoromethyl)phenyl]methyl}-4,5-dihydro-1,2,4-oxadiazol-5-one], for which the IC50 in test [1] is less than 200 nM; in test [2] it was 200 to 1000 nM; in test [3], less than 200 nM.

As for `O=c1onc(Cc2ccccn2)n1Cc1ccc(F)cc1` [Example 104, 4-[(4-fluorophenyl)methyl]-3-(pyridin-2-ylmethyl)-4,5-dihydro-1,2,4-oxadiazol-5-one], the IC50 in test [1], in test [2] and in test [3] was greater than 10000 nM throughout.

Consider `O=c1onc(Cc2ccc(F)cc2)n1CC1CCC(F)(F)CC1` [Example 152, 4-[(4,4-difluorocyclohexyl)methyl]-3-[(4-fluorophenyl)methyl]-4,5-dihydro-1,2,4-oxadiazol-5-one], for which the IC50 in test [1] fell in the range of 200 to 1000 nM; in test [2], 1000 to 10000 nM; in test [3], 200 to 1000 nM.

Turning to `O=c1onc(Cc2c(F)cccc2Cl)n1Cc1cccnc1` [Example 42, 3-[(2-chloro-6-fluorophenyl)methyl]-4-(pyridin-3-ylmethyl)-4,5-dihydro-1,2,4-oxadiazol-5-one], the IC50 in test [1], in test [2] and in test [3] was greater than 10000 nM in each case.

As for `O=c1onc(Cc2cccc(Cl)c2Cl)n1Cc1c(F)cccc1Cl` [Example 13, 4-[(2-chloro-6-fluorophenyl)methyl]-3-[(2,3-dichlorophenyl)methyl]-4,5-dihydro-1,2,4-oxadiazol-5-one], the IC50 in test [1], in test [2] and in test [3] was 1000 to 10000 nM throughout.

Consider `O=c1onc(Cc2cccc(F)c2)n1CC1CCCCC1` [Example 125, 4-(cyclohexylmethyl)-3-[(3-fluorophenyl)methyl]-4,5-dihydro-1,2,4-oxadiazol-5-one], for which the results for the 50% inhibitory concentration (IC50) in test [1], in test [2] and in test [3] were 200 to 1000 nM, 1000 to 10000 nM and 1000 to 10000 nM, respectively.

As for `O=c1onc(Cc2c(F)cccc2Cl)n1Cc1ccccc1Cl` [Example 22, 3-[(2-chloro-6-fluorophenyl)methyl]-4-[(2-chlorophenyl)methyl]-4,5-dihydro-1,2,4-oxadiazol-5-one], the IC50 in test [1], in test [2] and in test [3] was 1000 to 10000 nM in each case.

With `COc1ccc(Cc2noc(=O)n2CC2CCC(F)(F)CC2)cc1` [Example 154, 4-[(4,4-difluorocyclohexyl)methyl]-3-[(4-methoxyphenyl)methyl]-4,5-dihydro-1,2,4-oxadiazol-5-one], the IC50 in test [1], in test [2] and in test [3] was 1000 to 10000 nM each time.

On to `Cc1nc(Cn2c(CC3CCC(F)(F)CC3)noc2=O)no1` [Example 196, 3-[(4,4-difluorocyclohexyl)methyl]-4-[(5-methyl-1,2,4-oxadiazol-3-yl)methyl]-1,2,4-oxadiazol-5(4H)-one], for which the IC50 in test [1], in test [2] and in test [3] was greater than 10000 nM each time.

Regarding `O=c1onc(Cc2cccc(C(F)(F)F)c2Cl)n1CC1CCCCC1` [Example 113, 3-{[2-chloro-3-(trifluoromethyl)phenyl]methyl}-4-(cyclohexylmethyl)-4,5-dihydro-1,2,4-oxadiazol-5-one], the IC50 in test [1], in test [2] and in test [3] was 1000 to 10000 nM each time.

One may read the IC50 as the concentration at which inhibition is half-maximal.

The record behind these values is patent US11623919B2, “Heterocyclic P2X7 antagonists” (AXXAM S.P.A., priority 2017, dated 2023).
